Test results as given in patent publication US20240139214A1, “AGENT FOR SUPPRESSING IL-31 PRODUCTION AND PHARMACEUTICAL COMPOSITION CONTAINING THE SAME” (KYUSHU UNIVERSITY, NATIONAL UNIVERSITY CORPORATION, priority 2021, published 2024).

Legend:
mouse IL-31 gene = test: IL-31 production inhibitory action: IL-31 gene expression by real-time PCR in antigen-stimulated CD4+ T cells from Dock8−/− AND Tg mice; assay type: cell-based; settings: for activity at 0.312 µM / activity at 0.625 µM / activity at 1.25 µM / activity at 2.5 µM / activity at 0.078 µM / activity at 0.156 µM: Mus musculus, CD4+ T, 24 h, read-out: qPCR results (IL-31 production (%)): based on the case using 0.1% DMSO taken as 100%
CD4+ T cells = test: T cell proliferation assay (PMA and ionomycin, 3H-thymidine incorporation); assay type: cell-based, mouse; settings: for activity at 5 µM / activity at 10 µM / activity at 20 µM / activity at 40 µM: Mus musculus, CD4+ T, 66 h, read-out: Cell proliferation (%): based on the case using 0.2% DMSO taken as 100%
Procedure: (§1) A T cell proliferation assay was performed by culturing CD4^+ T cells (5×10^4 cells) with T cell-depleted irradiated spleen cells (1×10^6 cells) in the presence of phorbol 12-myristate 13-acetate (PMA: 100 ng/ml; Sigma-Aldrich) and ionomycin (1 μg/ml; Sigma-Aldrich) for 66 hours. For the last 18 hours of culture, ^3H-thymidine (0.037 MBq) was added, and the incorporated radioactivity was measured with MicroBeta^2 (PerkinElmer, Inc., Waltham, MS).
as §1, with “hours. Test compounds were added at various final concentrations at the start of culture.” for “hours.”, “MS). […]” for “MS).”

IL-2 gene (Il2) = test: IL-2 gene expression in CD4+ T cells from Dock8−/− AND Tg mice (real-time PCR); assay type: cell-based, mouse; settings: 2.5 μM; FIG. 2B
Procedure: (§2) Total RNA was isolated using ISOGEN (Nippon Gene Co., Ltd.). For amplification by PCR, RNA samples treated with RNase-free DNase I (Thermo Fisher Scientific) were reverse-transcribed with oligo(dT) primers (TFS) and SuperScript III reverse transcriptase (TFS). Real-time PCR was performed in a CFX Connect™ thermal cycler (BIO-RAD) using SYBR Green PCR Master Mix (Thermo Fisher Scientific). The expression of mouse and human target genes was normalized to expression of Hprt and PPIB genes, respectively. CFX Manager software (ver.3.1) supplied with the instrument was used for analysis.
(§3) CD4^+ T cells (3×10^5 cells) from Dock8^−/− AND Tg mice were cultured with T cell-depleted irradiated spleen cells (5×10^6 cells) containing a test compound (2.5 μM) or a vehicle alone (0.1% DMSO), in the presence of MCC88-103 (3 μg/ml) for 24 hours.

IL-4 gene (Il4) = test: IL-4 gene expression in CD4+ T cells from Dock8−/− AND Tg mice (real-time PCR); assay type: cell-based, mouse; settings: 2.5 μM; FIG. 2B
Procedure: as §2, §3

Structure (SMILES) | activity at 0.312 µM (mouse IL-31 gene) [%] | activity at 0.625 µM (mouse IL-31 gene) [%] | activity at 1.25 µM (mouse IL-31 gene) [%] | activity at 2.5 µM (mouse IL-31 gene; 2.5 μM) [%] | activity at 5 µM (CD4+ T cells) [%] | activity at 10 µM (CD4+ T cells) [%] | activity at 20 µM (CD4+ T cells) [%] | activity at 40 µM (CD4+ T cells) [%] | activity at 0.078 µM (mouse IL-31 gene) [%] | activity at 0.156 µM (mouse IL-31 gene) [%] | antigen-induced IL-31 gene expression (in words) (mouse IL-31 gene; 2.5 μM, FIG. 2A) | IL-31 production inhibitory action (in words, discussion of Table 1) (mouse IL-31 gene; relative to compound 1) | effect on non-specific T cell proliferation induced by PMA and ionomycin (CD4+ T cells; FIG. 4) | effect on expression of IL-2 gene (IL-2 gene (Il2)) | effect on expression of IL-4 gene (IL-4 gene (Il4))
CN(C)c1ccc(-c2cnc(-c3ccc(C(=O)O)cc3)o2)cc1 [Compound 19, 4-(5-(4-(Dimethylamino)phenyl)oxazol-2-yl)benzoic Acid] | 67.6 | 69.9 | 54.5 | 16.9 | 86.3 | 79.4 | 66 | 67.4 |  |  |  |  |  |  | 
O=C(O)c1ccc(-c2cnc(-c3cc(C(F)(F)F)ccc3Cl)o2)cc1 [Compound 20, 4-(2-(2-Chloro-5-(trifluoromethyl)phenyl)oxazol-5-yl)benzoic Acid] | 23.3 | 24.7 | 22.1 | 32.6 |  | 91.2 | 87.5 | 86.7 | 16.9 | 17.7 |  |  |  |  | 
O=C(O)c1ccc(-c2cc(-c3cc(C(F)(F)F)ccc3Cl)no2)cc1 [Compound 21, 4-(3-(2-Chloro-5-(trifluoromethyl)phenyl)isoxazol-5-yl)benzoic Acid] | 25.3 | 23 | 38.2 | 13.1 |  | 95.5 | 98.2 | 106 | 23.7 | 29.9 |  |  |  |  | 
O=C(O)c1ccc(-c2cn(-c3cc(C(F)(F)F)ccc3Cl)nn2)cc1 [Compound 23, 4-(1-(2-Chloro-5-(trifluoromethyl)phenyl)-1H-1,2,3-triazol-4-yl)benzoic Acid] | 46.4 | 31.4 | 22.7 |  | 110 | 92.9 | 88.5 | 68.9 |  | 32.5 |  |  |  |  | 
O=C(O)c1ccc(-c2cn(-c3cc(C(F)(F)F)ccc3F)nn2)cc1 [Compound 24, 4-(1-(2-Fluoro-5-(trifluoromethyl)phenyl)-1H-1,2,3-triazol-4-yl)benzoic Acid] | 18.1 | 32 | 31.5 |  | 88.1 | 81.5 | 71.3 | 62.9 |  | 31.2 |  |  |  |  | 
O=C(O)c1ccc(-c2nc(-c3cc(C(F)(F)F)ccc3Cl)n[nH]2)cc1 [Compound 25, 4-(3-(2-Chloro-5-(trifluoromethyl)phenyl)-1H-1,2,4-triazol-5-yl)benzoic Acid] | 82.7 | 85.6 | 72.2 | 81.9 |  | 82.9 | 81.3 | 80.5 |  |  |  |  |  |  | 
CC(C)c1ccc(-c2cnc(-c3ccc(C(=O)O)cc3)[nH]2)cc1 [Compound 26, 4-(5-(4-Isopropylphenyl)-1H-imidazol-2-yl)benzoic Acid] |  | 45.1 | 26.2 |  |  | 77.1 | 70.6 | 64.6 |  |  |  |  |  |  | 
O=C(O)c1ccc(-c2ncc(-c3cc(C(F)(F)F)ccc3Cl)[nH]2)cc1 [Compound 27, 4-(5-(2-Chloro-5-(trifluoromethyl)phenyl)-1H-imidazol-2-yl)benzoic Acid] | 39.6 | 43.1 | 46.8 |  | 86.2 | 78 | 70 |  | 28.6 | 35.1 |  |  |  |  | 
CC(C)c1ccc(-c2cc(-c3ccc(C(=O)O)cc3)n[nH]2)cc1 [Compound 28, 4-(5-(4-Isopropylphenyl)-1H-pyrazol-3-yl)benzoic Acid] | 70.6 | 42.6 | 28 |  |  | 99.9 | 89.5 | 69.1 |  | 73.2 |  |  |  |  | 
O=C(O)c1ccc(-c2cc(-c3cc(C(F)(F)F)ccc3Cl)[nH]n2)cc1 [Compound 29, 4-(5-(2-Chloro-5-(trifluoromethyl)phenyl)-1H-pyrazol-3-yl)benzoic Acid] | 52.3 | 61.9 | 40.7 | 63.6 |  | 88.6 | 77.7 | 86 |  | 59.1 |  |  |  |  | 
O=C(O)c1ccc(-n2ccc(-c3cc(C(F)(F)F)ccc3Cl)n2)cc1 [Compound 30, 4-(3-(2-Chloro-5-(trifluoromethyl)phenyl)-1H-pyrazol-1-yl)benzoic Acid] | 29.4 | 23.4 | 26.1 | 30.9 |  | 98.3 | 90.3 | 76.4 | 41.5 | 39.9 |  |  |  |  | 
CC(C)c1ccc(-c2nnc(-c3ccc(C(=O)O)cc3)o2)cc1 [Compound 31, 4-(5-(4-Isopropylphenyl)-1,3,4-oxadiazol-2-yl)benzoic Acid] |  | 53.6 | 24 |  |  | 97.5 | 79.3 | 65.6 |  |  |  |  |  |  | 
O=C(O)c1ccc(-c2nnc(-c3cc(C(F)(F)F)ccc3Cl)o2)cc1 [Compound 32, 4-(5-(2-Chloro-5-(trifluoromethyl)phenyl)-1,3,4-oxadiazol-2-yl)benzoic Acid] | 52.1 | 39.9 | 53.5 |  |  | 115 | 92.7 | 91.8 |  | 35.5 |  |  |  |  | 
O=C(O)c1ccc(-c2nc(-c3cc(C(F)(F)F)ccc3Cl)no2)cc1 [Compound 33, 4-(3-(2-Chloro-5-(trifluoromethyl)phenyl)-1,2,4-oxadiazol-5-yl)benzoic Acid] | 37.9 | 25.1 | 28 | 29.7 |  | 73.5 | 66.7 | 64.3 | 57.7 | 48.9 |  |  |  |  | 
CC(C)c1ccc(C(=O)Nc2nnc(-c3ccc(C(=O)O)cc3)s2)cc1 [Compound 34, 4-(5-(4-Isopropylbenzamido)-1,3,4-thiadiazol-2-yl)benzoic Acid] |  | 48.3 | 52.3 |  |  | 79 | 90.8 | 87.8 |  |  |  |  |  |  | 
CN(C)CCOc1ccc(/C=N/Nc2ccc(C(=O)O)cc2)cc1 [Negative control compound 1, 4-(2-(4-(2-(Dimethylamino)ethoxy)benzylidene)hydrazineyl)benzoic Acid, reference compound] |  |  |  |  |  |  |  |  |  |  | not inhibited | tended to notably decrease | neither of these compounds had an adverse effect | neither of these compounds had an effect | neither of these compounds had an effect
